Test system: Enterococcus faecium
Experiment: Antibacterial activity against clinical isolate Enterococcus faecium assessed as reduction in microbial growth by broth microdilution
Assay type: functional, organism-based

| MIC | SMILES | IC50 |
| --- | --- | --- |
| > 125 µg/mL | CCCCCCCCCC1CC(=O)N[C@H](CC(C)C)C(=O)N[C@@H](CO)C(=O)N[C@@H]([C@@H](C)O)C(=O)N[C@@H](Cc2ccccc2)C(=O)N[C@@H]([C@@H](C)CC)C(=O)O1 (stereo not given in full) |  |
| > 125 µg/mL | CCCCCC1CC(=O)N[C@H](CC(C)C)C(=O)N[C@@H](CO)C(=O)N[C@@H]([C@@H](C)O)C(=O)N[C@@H](Cc2ccccc2)C(=O)N[C@@H](CC(C)C)C(=O)O1 (stereo not given in full) |  |
| > 125 µg/mL | CCCCCCCC1CC(=O)N[C@@H](CC(C)C)C(=O)N[C@@H](CO)C(=O)N[C@@H]([C@@H](C)O)C(=O)N[C@@H](Cc2ccccc2)C(=O)N[C@@H](C(C)C)C(=O)O1 (stereo not given in full) |  |
| > 125 µg/mL | CCCCCCCCCC1CC(=O)N[C@H](CC(C)C)C(=O)N[C@@H](CO)C(=O)N[C@@H]([C@@H](C)O)C(=O)N[C@@H](Cc2ccccc2)C(=O)N[C@@H](CC(C)C)C(=O)O1 (stereo not given in full) |  |

The remaining lines, values behind:

| SMILES | MIC | IC50 |
| --- | --- | --- |
| CCCCCC1CC(=O)N[C@H](CC(C)C)C(=O)N[C@@H](CO)C(=O)N[C@@H]([C@@H](C)O)C(=O)N[C@@H](Cc2ccccc2)C(=O)N[C@@H]([C@@H](C)CC)C(=O)O1 (stereo not given in full) | 62.5 µg/mL | 53.1 µg/mL |
| CCCCCC1CC(=O)N[C@H](CC(C)C)C(=O)N[C@@H](CO)C(=O)N[C@@H]([C@@H](C)O)C(=O)N[C@@H](Cc2ccccc2)C(=O)N[C@@H](C(C)C)C(=O)O1 (stereo not given in full) | > 125 µg/mL |  |
| CCCCCCCCCC1CC(=O)N[C@@H](CC(C)C)C(=O)N[C@@H](CO)C(=O)N[C@@H]([C@@H](C)O)C(=O)N[C@@H](Cc2ccccc2)C(=O)N[C@@H](C(C)C)C(=O)O1 (stereo not given in full) | > 125 µg/mL |  |
| CCCCCCCC1CC(=O)N[C@H](CC(C)C)C(=O)N[C@@H](CO)C(=O)N[C@@H]([C@@H](C)O)C(=O)N[C@@H](Cc2ccccc2)C(=O)N[C@@H](CC(C)C)C(=O)O1 (stereo not given in full) | 15.6 µg/mL | 8.4 µg/mL |

Reference: ChEMBL document CHEMBL5120827, “Metabolomics and Genomics Approach for the Discovery of Serrawettin W2 Lipopeptides from Serratia marcescens NP2” (J Nat Prod, 2022)
